Source: PubChem BioAssay AID2060619 (Molecular Pharmacology Branch, DTP, NCI, 2025)

Test system: 323965-272-R-J2-PDC complex spheroid viability
Assay: Anticancer human tumor 323965-272-R-J2-PDC patient-derived pancreatic carcinoma cell line growth inhibition [CLK]
Settings: for IC50: curve of first compound; for viability, T/C: stronger effect = lower value
Outline: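 Patient-derived tumor cells grown as complex spheroids with HUVEC endothelial cells and mesenchymal stem cells, treated with drug combinations. Concentrations descend in half-log steps from near clinical Cmax, or from 10 microM if Cmax unknown.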

[1] = second compound 0.0316 µM, first compound 0.0316 µM
[2] = second compound 0.0316 µM, first compound 0.1 µM
[3] = second compound 0.0316 µM, first compound 0.316 µM
[4] = second compound 0.0316 µM, first compound 1 µM
[5] = second compound 0.0316 µM, first compound 3.16 µM
[6] = second compound 0.0316 µM, first compound 10 µM
[7] = second compound 0.1 µM, first compound 0.0316 µM
[8] = second compound 0.1 µM, first compound 0.1 µM
[9] = second compound 0.1 µM, first compound 0.316 µM
[10] = second compound 0.1 µM, first compound 1 µM
[11] = second compound 0.1 µM, first compound 3.16 µM
[12] = second compound 0.1 µM, first compound 10 µM
[13] = second compound 0.316 µM, first compound 0.0316 µM
[14] = second compound 0.316 µM, first compound 0.1 µM
[15] = second compound 0.316 µM, first compound 0.316 µM
[16] = second compound 0.316 µM, first compound 1 µM
[17] = second compound 0.316 µM, first compound 3.16 µM
[18] = second compound 0.316 µM, first compound 10 µM
[19] = second compound 1 µM, first compound 0.0316 µM
[20] = second compound 1 µM, first compound 0.1 µM
[21] = second compound 1 µM, first compound 0.316 µM
[22] = second compound 1 µM, first compound 1 µM
[23] = second compound 1 µM, first compound 3.16 µM
[24] = second compound 1 µM, first compound 10 µM
[25] = second compound 3.16 µM, first compound 0.0316 µM
[26] = second compound 3.16 µM, first compound 0.1 µM
[27] = second compound 3.16 µM, first compound 0.316 µM
[28] = second compound 3.16 µM, first compound 1 µM
[29] = second compound 3.16 µM, first compound 3.16 µM
[30] = second compound 3.16 µM, first compound 10 µM
[31] = second compound 10 µM, first compound 0.0316 µM
[32] = second compound 10 µM, first compound 0.1 µM
[33] = second compound 10 µM, first compound 0.316 µM
[34] = second compound 10 µM, first compound 1 µM
[35] = second compound 10 µM, first compound 3.16 µM
[36] = second compound 10 µM, first compound 10 µM
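Also: spheroids exposed to agents for seven days before readout.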
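For viability, T/C in this document: percent of DMSO vehicle control wells so 100% = untreated growth.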

COc1cccc2c1C(=O)c1c(O)c3c(c(O)c1C2=O)CC(O)(C(=O)CO)CC3OC1CC(N)C(O)C(C)O1 (stereo unspecified) + CN1CCN(c2cc(C(=O)Nc3cc4cc(-c5cnn(C)c5)ccc4cn3)ccn2)CC1
IC50 (second compound 0.0316 µM): 117 nM
IC50 (second compound 0.1 µM): < 31.6 nM
IC50 (second compound 0.316 µM): < 31.6 nM
IC50 (second compound 1 µM): < 31.6 nM
IC50 (second compound 3.16 µM): < 31.6 nM
IC50 (second compound 10 µM): < 31.6 nM
viability, T/C [1]: 67.8%
viability, T/C [2]: 40.7%
viability, T/C [3]: 39.4%
viability, T/C [4]: 34.8%
viability, T/C [5]: 25.3%
viability, T/C [6]: 1.54%
viability, T/C [7]: 54.4%
viability, T/C [8]: 31.6%
viability, T/C [9]: 29.3%
viability, T/C [10]: 28.2%
viability, T/C [11]: 19.1%
viability, T/C [12]: 1.41%
viability, T/C [13]: 20.3%
viability, T/C [14]: 19.8%
viability, T/C [15]: 16.1%
viability, T/C [16]: 13.1%
viability, T/C [17]: 5.8%
viability, T/C [18]: 0.68%
viability, T/C [19]: 2.27%
viability, T/C [20]: 3.05%
viability, T/C [21]: 2.16%
viability, T/C [22]: 1.22%
viability, T/C [23]: 1.2%
viability, T/C [24]: 0.38%
viability, T/C [25]: 4.1%
viability, T/C [26]: 4.05%
viability, T/C [27]: 2.98%
viability, T/C [28]: 1.5%
viability, T/C [29]: 1.35%
viability, T/C [30]: 0.43%
viability, T/C [31]: 4.15%
viability, T/C [32]: 4.78%
viability, T/C [33]: 4.17%
viability, T/C [34]: 1.38%
viability, T/C [35]: 1.47%
viability, T/C [36]: 0.19%

COC1C=CCC(C)C(C)S(=O)(=O)NC(=O)c2ccc3c(c2)N(CC2CCC21)CC1(CCCc2cc(Cl)ccc21)CO3 (stereo unspecified) + CNC(=O)c1ccc(Nc2nc(OC3CCCC3)c3c(-c4ccc5nc(C)oc5c4)c[nH]c3n2)c(OC)c1
IC50 (second compound 0.0316 µM): 2200 nM
IC50 (second compound 0.1 µM): 1370 nM
IC50 (second compound 0.316 µM): 580 nM
IC50 (second compound 1 µM): < 31.6 nM
IC50 (second compound 3.16 µM): < 31.6 nM
IC50 (second compound 10 µM): 53.1 nM
viability, T/C [1]: 106%
viability, T/C [2]: 119%
viability, T/C [3]: 85.4%
viability, T/C [4]: 68.3%
viability, T/C [5]: 43.9%
viability, T/C [6]: 23.2%
viability, T/C [7]: 105%
viability, T/C [8]: 86.5%
viability, T/C [9]: 68.8%
viability, T/C [10]: 57.4%
viability, T/C [11]: 36.8%
viability, T/C [12]: 25.1%
viability, T/C [13]: 74.1%
viability, T/C [14]: 62%
viability, T/C [15]: 56.9%
viability, T/C [16]: 42.3%
viability, T/C [17]: 39.1%
viability, T/C [18]: 21.4%
viability, T/C [19]: 47.6%
viability, T/C [20]: 47.8%
viability, T/C [21]: 39.1%
viability, T/C [22]: 37.4%
viability, T/C [23]: 30.7%
viability, T/C [24]: 21.5%
viability, T/C [25]: 46.1%
viability, T/C [26]: 43.5%
viability, T/C [27]: 36.7%
viability, T/C [28]: 29.7%
viability, T/C [29]: 28.4%
viability, T/C [30]: 20.7%
viability, T/C [31]: 54.7%
viability, T/C [32]: 45.3%
viability, T/C [33]: 32.8%
viability, T/C [34]: 29.2%
viability, T/C [35]: 24.8%
viability, T/C [36]: 18.1%

C=C(F)C(=O)N1CCN(c2nc(OCC3CCCN3C)nc3c2CCN(c2cccc4cccc(Cl)c24)C3)CC1CC#N (stereo unspecified) + CNC(=O)c1ccc(Nc2nc(OC3CCCC3)c3c(-c4ccc5nc(C)oc5c4)c[nH]c3n2)c(OC)c1
IC50 (second compound 0.0316 µM): 7910 nM
IC50 (second compound 0.1 µM): 31.6 nM
IC50 (second compound 0.316 µM): < 31.6 nM
IC50 (second compound 1 µM): < 31.6 nM
IC50 (second compound 3.16 µM): < 31.6 nM
IC50 (second compound 10 µM): < 31.6 nM
viability, T/C [1]: 69.7%
viability, T/C [2]: 49.6%
viability, T/C [3]: 52.8%
viability, T/C [4]: 78%
viability, T/C [5]: 85.2%
viability, T/C [6]: 17.7%
viability, T/C [7]: 47.7%
viability, T/C [8]: 40.4%
viability, T/C [9]: 39.6%
viability, T/C [10]: 48.5%
viability, T/C [11]: 64%
viability, T/C [12]: 9.35%
viability, T/C [13]: 36.1%
viability, T/C [14]: 28.4%
viability, T/C [15]: 32.9%
viability, T/C [16]: 33.4%
viability, T/C [17]: 45.2%
viability, T/C [18]: 1.42%
viability, T/C [19]: 25.8%
viability, T/C [20]: 22%
viability, T/C [21]: 25.6%
viability, T/C [22]: 27.8%
viability, T/C [23]: 31%
viability, T/C [24]: 0.63%
viability, T/C [25]: 26.2%
viability, T/C [26]: 20.6%
viability, T/C [27]: 22.1%
viability, T/C [28]: 23.6%
viability, T/C [29]: 28.9%
viability, T/C [30]: 0.56%
viability, T/C [31]: 23.2%
viability, T/C [32]: 20.8%
viability, T/C [33]: 21.2%
viability, T/C [34]: 28.3%
viability, T/C [35]: 24.8%
viability, T/C [36]: 0.31%
